Values after ≈ are worked out from the molar mass of the structure shown. Values joined by “and” are separate entries in the source; they are usually repeats but may differ in a detail not shown here. Equal entries are not always repeated. Where two headings read alike, the source gives them in different places. Ends that are not written are not given here.
Legend:
C. difficile [1] = assay: microbe, parasite or virus in culture; assay type: cell-based, Clostridium difficile
Experimental: MIC testing for C. difficile was performed by Eurofins Panlabs Taiwan LTD based on modifications from the CLSI M11-A8 broth dilution method for Bacteroides fragilis susceptibility testing. Briefly, Reinforced Clostridial Medium (RCM) was pre-reduced by over-night incubation in an anaerobic chamber (80% N2, 10% CO2, and 10% H2) prior to use. MU1140 and variants were dissolved in 100% DMSO, diluted by 2-fold serial dilution in 100% DMSO, for a total of 11 concentrations. A 4 μL aliquot of each dilution was added to 96 μL RCM in wells of a 96 well plate using a Biomek FX instrument (Beckman Coulter, USA), followed by the addition of C. difficile suspension, in RCM, 100 μL/well. The final bacterial count was 2 x 10^5 to 1 x 10^6 colony forming units/mL, in 200 μL per assay well. […] Assay plates were incubated at 35°C for 46 to 48 hr in the anaerobic chamber (A35 Anaerobic Workstation, Don Whitley, UK). Following incubation, test plates were visually examined and each well was scored for growth then the MIC was recorded as the lowest concentration that results in complete inhibition of growth. Each test substance was evaluated in duplicate. Vehicle-control and vancomycin were used as blank and positive controls, respectively. The MIC values of the vancomycin controls were consistent with the historical data against test strains (data not shown).

[2] = Solubility 5% D-mannitol, 5% D-mannitol in water, visual assessment
Experimental: (§1) To that end, approximately 10 mg of each compound was weighed on a high-precision balance and dispensed into a 1.5 mL microfuge tube.

[3] = 1.0 mg/mL in water
Experimental: Five aliquots of each compound were prepared by dissolving them to 1.0 mg/mL in HPLC grade water (Fisher Scientific, USA). A total of 2 aliquots of the solution were placed in a 37°C stability chamber, and 2 aliquots were placed in a 50°C chamber. Samples were collected on days 0, 2 and 7, centrifuged at 12,000 x g for 5 min, and the supernatants were transferred to a fresh tube. Each sample was diluted 1:4 with 0.05% trifluoroacetic acid (TFA) and the purity and quantity were analyzed by HPLC as described above.

[4] = 5% D-mannitol
Experimental: as §1

[5] = FaSSIF with trypsin/chymotrypsin
Experimental: FaSSIF was supplemented with 2% pancreatin (w/v), 6 μg/mL of trypsin and 6 μg/mL of α-chymotrypsin and was prepared as previously reported [22]. All proteases were from Fisher ScientificSamples were collected at the same frequency as in the FaSSGF study, and analyzed using the same method.

C. difficile UNT103-1 = assay: Golden Syrian hamster model of CDAD, oral gavage efficacy; assay type: in vivo
Experimental: In vivo efficacy was performed as previously described in detail, except that the compounds were administered via oral gavage (rather than the illeal cannulation method used previously). This study was carried out in accordance with protocols 2016–0015 approved by the Institutional Animal Care and Use Committee (IACUC) at the University of North Texas Health Science Center (UNTHSC). IACUC established guidelines ensuring that approved protocols are in compliance with federal and state laws regarding animal care and use activity at UNTHSC. The UNTHSC animal program in USDA registered (74-R0081) and fully AAALAC accredited.
Briefly, 7–8 weeks old Male Golden Syrian hamsters were used in this study, and weighted 100–120 g (Charles River Laboratories, Wilmington, MA). C. difficile UNT103-1 (VA11, non epidemic (cdtB-, REA group J) was received from Curtis Donskey, Cleveland VA Hospital, Cleveland, OH) and cultured as previously described. The isolate has been previously utilized for the hamster model by the University of North Texas Health Sciences Center (UNTHSC). The infection inoculum was tested to determine the ratio of spores to vegetative cells. In accordance with the details in Table 2, a total of 60 animals were used in this study. Animals were randomized into the 10 study groups (N = 6 per group) prior to treatment. On Day 0, animals were infected with 5.63 x 10^7 total CFU of which 2.81 x 10^4 represented inoculated spores. On Day 1, at 24 hrs post-infection, all animals received a single subcutaneous injection of clindamycin (10 mg/kg). Test articles in 5% mannitol were then administered orally 3x per day (TID), starting on Day 2 at 18 hours after clindamycin injection, for 5 consecutive days (Days 2 through 6). USP-grade vancomycin (positive control) was prepared in water for injection (WFI) at 50 mg/mL and stored refrigerated during the course of the study. […] Data was analyzed using GraphPad Prism 6.0d. […]

[6] = design: method as in earlier work; settings: cited from earlier work
C. difficile [7] = test system: C. difficile; design: method as in PMID 20974818; settings: cited from earlier work
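Throughout, for Forced degradation Δ Conc: purity and concentration determined by HPLC on aqueous solutions kept in a stability chamber, with samples analyzed at day 0 and after incubation.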
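Throughout, for Forced degradation Δ Purity: purity and concentration determined by HPLC on aqueous solutions kept in a stability chamber, with samples analyzed at day 0 and after incubation.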

Row | Compound | MIC 50 (C. difficile [1]) [µg/mL] | MIC 90 (C. difficile [1]) [µg/mL] | MIC Mode (C. difficile [1]) [µg/mL] | MIC Range (C. difficile [1]) [µg/mL] | Minimum Inhibitory Concentration C. difficile 103-1 (C. difficile [1]) [µg/mL] | Minimum Inhibitory Concentration C. difficile 107-1 (C. difficile [1]) [µg/mL] | Minimum Inhibitory Concentration C. difficile ATCC 9689 (C. difficile [1]) [µg/mL] | Minimum Inhibitory Concentration C. difficile ATCC 43597 (C. difficile [1]) [µg/mL] | Minimum Inhibitory Concentration C. difficile ATCC BAA-1805 (C. difficile [1]) [µg/mL] | Minimum Inhibitory Concentration C. difficile ATCC BAA-1808 (C. difficile [1]) [µg/mL] | Minimum Inhibitory Concentration C. difficile ATCC BAA-1874 (C. difficile [1]) [µg/mL] | Minimum Inhibitory Concentration C. difficile ATCC BAA-1875 (C. difficile [1]) [µg/mL] | solubility [2] [µg/mL] | Forced degradation Δ Conc ([3]; 2 Days at 37°C) | Forced degradation Δ Purity ([3]; 2 Days at 37°C) [%] | Forced degradation Δ Conc ([3]; 2 Days at +50°C) | Forced degradation Δ Purity ([3]; 2 Days at +50°C) [%] | Forced degradation Δ Conc ([3]; 7 Days at 37°C) | Forced degradation Δ Purity ([3]; 7 Days at 37°C) [%] | Forced degradation Δ Conc ([3]; 7 Days at +50°C) | also measured
1 | C=C1NC(=O)[C@H](Cc2c[nH]c3ccccc23)NC(=O)[C@H](NC(=O)[C@H](CCCCN)NC(=O)[C@@H](N)[C@@H](C)CC)CSC[C@@H](C(=O)N[C@H]2C(=O)N3CCC[C@H]3C(=O)NCC(=O)N[C@H](C(=O)N[C@@H](C)C(=O)N[C@@H](CC(=O)O)C(=O)N/C(=C\C)C(=O)NCC(=O)N[C@@H]3CSC[C@@H]4NC(=O)[C@H](Cc5ccc(O)cc5)NC(=O)[C@@H](CS/C=C\NC4=O)NC(=O)[C@H](CC(N)=O)NC(=O)[C@H](Cc4ccccc4)NC3=O)CS[C@H]2C)NC(=O)[C@H](CC(C)C)NC1=O [OG703] | 1 (≈ 0.457 µM) | 2 (≈ 0.913 µM) | 1 (≈ 0.457 µM) | 0.5 to 2 | 0.5 | 2 | 2 | 1 | 1 | 1 | 0.5 | 1 | 7000 (≈ 3200 µM) | -9.2% and -9% | -0.97 | -15% | -1.74 | -13.4% and -13% | -1.04 | -30.3% and -30% | Forced degradation Δ Purity ([3]; 7 Days at +50°C): -4.79%; solubility reduced relative to OG706 [4]: 2-3 fold
2 | C=C1NC(=O)[C@H](Cc2c[nH]c3ccccc23)NC(=O)[C@H](NC(=O)[C@H](CCCCN)NC(=O)[C@@H](N)[C@@H](C)CC)CSC[C@@H](C(=O)N[C@H]2C(=O)N3CCC[C@H]3C(=O)NCC(=O)N[C@H](C(=O)N[C@@H](C)C(=O)N[C@@H](C)C(=O)N/C(=C\C)C(=O)NCC(=O)N[C@@H]3CSC[C@@H]4NC(=O)[C@H](Cc5ccc(O)cc5)NC(=O)[C@@H](CS/C=C\NC4=O)NC(=O)[C@H](CC(N)=O)NC(=O)[C@H](Cc4ccccc4)NC3=O)CS[C@H]2C)NC(=O)[C@H](CC(C)C)NC1=O [OG711] | 0.5 (≈ 0.233 µM) | 1 (≈ 0.466 µM) | 0.25 (≈ 0.117 µM) | 0.25 to 1 | 0.25 | 1 | 1 | 0.5 | 0.25 | 0.25 | 0.5 | 0.5 | 12000 to 18000 (≈ 5590 to 8390 µM) | -12.5% and -13% | -1.24 | -8.7% and -9% | -0.61 | -10.8% and -11% | -0.63 | -40.1% and -40% | Forced degradation Δ Purity ([3]; 7 Days at +50°C): -2.94%; improvement in half-life in FaSSIF (stability to proteolytic degradation) relative to OG253 [5]: > 50 fold
3 | CN[C@H](CC(C)C)C(=O)N[C@H]1C(=O)N[C@@H](CC(N)=O)C(=O)N[C@H]2C(=O)N[C@H]3C(=O)N[C@H](C(=O)N[C@H](C(=O)O)c4cc(O)cc(O)c4-c4cc3ccc4O)[C@H](O)c3ccc(c(Cl)c3)Oc3cc2cc(c3O[C@@H]2O[C@H](CO)[C@@H](O)[C@H](O)[C@H]2O[C@H]2C[C@](C)(N)[C@H](O)[C@H](C)O2)Oc2ccc(cc2Cl)[C@H]1O [Vancomycin, reference compound] | – | – | – | – | – | – | – | – | – | – | – | – | – | – | – | – | – | – | – | – | Minimum Inhibitory Concentration C. difficile Range (C. difficile [1]; 8 C. difficile strains): 0.5 to 4 mg/mL; MIC 50 (C. difficile [1]; Clostridioides difficile): 0.5 µg/mL (≈ 0.345 µM); MIC 90 (C. difficile [1]; Clostridioides difficile): 4 µg/mL (≈ 2.76 µM); MIC Range (C. difficile [1]; panel of C. difficile strains, n = 8): 0.5 to 4 µg/mL; survival (C. difficile UNT103-1; 20 mg/kg oral gavage x 5 days (test compounds TID, vancomycin QD), outcome of the study (Day 21)): 83%; C. difficile spore count of cecal samples (C. difficile UNT103-1; 20 mg/kg oral gavage x 5 days, cecal contents at death or Day 21): 2.96 log10 CFU/mL; spore counts compared to control (vehicle-treated) animals (C. difficile UNT103-1; cecal contents at death or Day 21): significantly lower
4 | CCc1c(Cl)c(O)c(Cl)c(O)c1C(=O)O[C@H]1[C@H](O)[C@H](OC)[C@H](OC/C2=C\C=C\C[C@H](O)/C(C)=C/[C@H](CC)[C@@H](O[C@@H]3OC(C)(C)[C@@H](OC(=O)C(C)C)[C@H](O)[C@@H]3O)/C(C)=C/C(C)=C/C[C@@H]([C@@H](C)O)OC2=O)O[C@@H]1C [fidaxomycin] | – | – | – | – | – | – | – | – | – | – | – | – | – | – | – | – | – | – | – | – | solubility in water [6]: 12.5 µg/mL (≈ 11.8 µM)
5 | gallidermin (IASKFLCTPGCAKTGSFNSYCC; also: lantibiotic (lanthionine rings and dehydro residues not given here); UniProt P21838 31-52, looked up) [lantibiotic / cationic antimicrobial peptide] | – | – | – | – | – | – | – | – | – | – | – | – | – | – | – | – | – | – | – | – | MIC increase of C. difficile (C. difficile [7]; cpr induction in vitro): 2–4 fold; MIC of C. difficile (C. difficile [7]; level reached after MIC increase (cpr induction)): ~ 1 μg/ml
